Each structure is given as a SMILES string.

As a reminder, the IC50 is the concentration that inhibits the measured activity by half.

T1 sequence (Q96P20 whole entry): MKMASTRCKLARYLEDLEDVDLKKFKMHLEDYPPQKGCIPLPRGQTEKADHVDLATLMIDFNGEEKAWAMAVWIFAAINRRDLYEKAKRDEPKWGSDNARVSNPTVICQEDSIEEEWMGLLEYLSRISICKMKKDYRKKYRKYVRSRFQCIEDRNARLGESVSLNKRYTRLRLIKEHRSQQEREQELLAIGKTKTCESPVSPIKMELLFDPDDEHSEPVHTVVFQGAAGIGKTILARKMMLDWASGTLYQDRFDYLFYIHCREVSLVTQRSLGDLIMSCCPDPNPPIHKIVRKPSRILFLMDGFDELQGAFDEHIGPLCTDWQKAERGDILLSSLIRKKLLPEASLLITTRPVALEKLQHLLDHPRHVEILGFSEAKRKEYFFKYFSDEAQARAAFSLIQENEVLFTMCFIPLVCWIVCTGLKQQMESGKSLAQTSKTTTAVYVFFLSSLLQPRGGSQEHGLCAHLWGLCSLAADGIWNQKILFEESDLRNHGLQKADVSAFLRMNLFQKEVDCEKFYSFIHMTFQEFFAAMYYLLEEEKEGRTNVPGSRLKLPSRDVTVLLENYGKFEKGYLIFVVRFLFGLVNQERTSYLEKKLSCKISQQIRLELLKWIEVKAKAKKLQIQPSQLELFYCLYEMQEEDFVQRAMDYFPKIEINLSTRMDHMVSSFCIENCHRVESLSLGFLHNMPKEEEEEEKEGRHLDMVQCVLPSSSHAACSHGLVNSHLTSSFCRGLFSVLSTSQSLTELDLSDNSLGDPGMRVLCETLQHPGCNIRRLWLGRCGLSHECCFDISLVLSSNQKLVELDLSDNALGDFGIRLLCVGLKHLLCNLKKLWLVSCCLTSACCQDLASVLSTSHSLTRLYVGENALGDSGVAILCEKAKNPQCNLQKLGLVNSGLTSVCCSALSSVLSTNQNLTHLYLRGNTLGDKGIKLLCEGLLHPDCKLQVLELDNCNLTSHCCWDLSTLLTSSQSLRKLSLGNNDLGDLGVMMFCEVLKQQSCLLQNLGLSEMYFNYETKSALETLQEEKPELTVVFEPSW

One experiment concerns the target T1, NLRP3 (Homo sapiens, UniProt Q96P20). As to the kind of experiment: THP-1 cells pyroptosis assay. The class given is cell-based. Set-up: Seed THP-1 cells (25,000 cells/well) containing 1.0 μg/ml LPS; host or cells: THP-1 cells, LPS-primed, nigericin-stimulated. The settings on record: 1.0 μg/ml LPS, compound 3 hrs, nigericin 5 μM 1 hr, resazurin readout. Here is the method:
THP-1 cells (ATCC #TIB-202) were grown in RPMI containing L-glutamine (Gibco #11835) supplemented with 1 mM sodium pyruvate (Sigma #S8636) and penicillin (100 units/ml)/streptomycin (0.1 mg/ml) (Sigma #P4333) in 10% Fetal Bovine Serum (FBS) (Sigma #F0804). The cells were routinely passaged and grown to confluency (˜10^6 cells/ml). On the day of the experiment, THP-1 cells were harvested and resuspended into RPMI medium (without FBS). The cells were then counted and viability (>90%) checked by Trypan blue (Sigma #T8154). Appropriate dilutions were made to give a concentration of 625,000 cells/ml. To this diluted cell solution was added LPS (Sigma #L4524) to give a […] Final Assay Concentration (FAC). 40 μl of the final preparation was aliquoted into each well of a 96-well plate. The plate thus prepared was used for compound screening.
The following method step-by-step assay was followed for compound screening. • 1. Seed THP-1 cells (25,000 cells/well) containing 1.0 μg/ml LPS in 40 μl of RPMI medium (without FBS) in 96-well, black walled, clear bottom cell culture plates coated with poly-D-lysine (VWR #734-0317) • 2. Add 5 μl compound (8 points half-log dilution, with 10 μM top dose) or vehicle (DMSO 0.1% FAC) to the appropriate wells • 3. Incubate for 3 hrs at 37° C., 5% CO2 • 4. Add 5 μl nigericin (Sigma #N7143) (FAC 5 μM) to all wells • 5. Incubate for 1 hr at 37° C., 5% CO2 • 6. At the end of the incubation period, spin plates at 300×g for 3 mins and remove supernatant • 7. Then add 50 μl of resazurin (Sigma #R7017) (FAC 100 μM resazurin in RPMI medium without FBS) and incubate plates for a further 1-2 hrs at 37° C. and 5% CO2 • 8. Plates were read in an Envision reader at Ex 560 nm and Em 590 nm • 9. IC50 data is fitted to a non-linear regression equation (log inhibitor vs response-variable slope 4-parameters) 96-well Plate Map
With `CN1CCOc2cc(ccn2)-c2ccc3c(c2Nc2nnc([nH]2)S(=O)(=O)N2CCC1CC2)CCC3` [Example 9, 25-methyl-22-oxa-2λ^6-thia-1,4,5,7,20,25,32-heptaazahexacyclo-[24.2.2.1^3,6.1^17,21.0^8,16.0^9,13]dotriaconta-3,5,8,13,15,17,19,21(31)-octaene-2,2-dioxide], the half-inhibitory concentration (IC50) is not above 500 nM.
Still for that read-out and setting: next, `O=S1(=O)c2nnc([nH]2)Oc2c(ccc3c2CCC3)-c2ccnc(c2)OCCCN2CCC3(C2)CN1C3` [Example 23, 11,26-dioxa-16λ^6-thia-13,14,17,22,28,34-hexaazaheptacyclo-[25.3.1.1^12,15.1^17,19.1^19,22.0^2,10.0^5,9]tetratriaconta-1(30),2,4,9,12,14,27(31),28-octaene-16,16-dioxide]: not above 5000 nM; `CC1(C)CCOc2cc(ccn2)-c2ccc3c(c2Nc2nnc([nH]2)S(=O)(=O)c2ccn1n2)CCC3` [Example 7, 21,21-dimethyl-24-oxa-16λ^6-thia-11,13,14,20,26,30,31-heptazahexacyclo-[23.3.1.1^12,15.1^17,20.0^2,10.0^5,9]hentriaconta-1(28),2,4,9,12,14,17(30),18,25(29),26-decaene 16,16-dioxide]: not above 10000 nM; `CN1CCCCOc2cc(ccn2)-c2ccc3c(c2Nc2nnc([nH]2)S(=O)(=O)N2CCC1CC2)CCC3` [Example 13, 27-methyl-22-oxa-2λ^6-thia-1,4,5,7,20,27,34-heptaazahexacyclo-[26.2.2.1^3,6.1^17,21.0^8,16.0^9,13]tetratriaconta-3,5,8,13,15,17,19,21(33)-octaene-2,2-dioxide]: not above 1000 nM.
The same measure, in the same setting: next, `O=S1(=O)c2nnc([nH]2)Nc2c(ccc3c2CCC3)-c2ccnc(c2)OCCCCN2CCC3(C2)CN1C3` [Example 19, 27-oxa-16λ^6-thia-11,13,14,17,22,29,35-heptaazaheptacyclo-[26.3.1.1^12,15.1^17,19.1^19,22.0^2,10.0^5,9]pentatriaconta-1(31),2,4,9,12,14,28(32),29-octaene-16,16-dioxide]: not above 500 nM.
`Cc1cc2c(c3c1-c1ccnc(c1)OCCCN1CCC4(C1)CN(C4)S(=O)(=O)c1nnc([nH]1)N3)CCC2` [Example 4, 3-methyl-26-oxa-16λ^6-thia-11,13,14,17,22,28,34-heptazaheptacyclo-[25.3.1.1^12,15.1^17,19.1^19,22.0^2,10.0^5,9]tetratriaconta-1(30),2,4,9,12,14,27(31),28-octaene 16,16-dioxide] registered an IC50 not above 100 nM.
The same measure, in the same setting: next, `O=S1(=O)c2nnc([nH]2)Nc2c(ccc3c2CCC3)-c2ccnc(c2)OCCCN2CCOCC23CCN1CC3` [Example 20]: not above 500 nM; `O=S1(=O)c2nnc([nH]2)Nc2c(ccc3c2CCC3)-c2ccnc(c2)OCCCN2CCC23CCN1CC3` [Example 15, 8-oxa-28λ^6-thia-4,10,23,25,26,29,34-heptaazaheptacyclo-[27.2.2.1^9,13.1^24,27.0^1,4.0^14,22.0^17,21]pentatriaconta-9(35),10,12,14,16,21,24,26-octaene-28,28-dioxide]: not above 100 nM.
Same read-out and setting: next, `CC1(C)COc2cc(ccn2)-c2ccc3c(c2Nc2nnc([nH]2)S(=O)(=O)N2CC4(CCN1C4)C2)CCC3` [Example 10, 23,23-dimethyl-25-oxa-16λ^6-thia-11,13,14,17,22,27,33-heptaazaheptacyclo[24.3.1.1^12,15.1^17,19.1^19,22.0^2,10.0^5,9]tritriaconta-1(29),2,4,9,12,14,26(30),27-octaene-16,16-dioxide]: not above 100 nM; `CN1CCOc2cc(ccn2)-c2ccc3c(c2Nc2nnc([nH]2)S(=O)(=O)N2CC[C@H](C1)C2)CCC3` [Example 14, (20R)-22-methyl-25-oxa-16λ^6-thia-11,13,14,17,22,27,32-heptaazahexacyclo[24.3.1.1^12,15.1^17,20.0^2,10.0^5,9]dotriaconta-1(29),2,4,9,12,14,26(30),27-octaene-16,16-dioxide]: not above 500 nM; `O=S1(=O)c2nnc([nH]2)Nc2c(ccc3c2CCC3)-c2ccnc(c2)OCCCN2C[C@@H]3C[C@H]2CN31` [Example 22, (19S,21S)-27-oxa-16λ^6-thia-11,13,14,17,23,29,33-heptaazaheptacyclo-[26.3.1.1^12,15.0^2,10.0^5,9.0^17,21.0^19,23]tritriaconta-1(31),2,4,9,12,14,28(32),29-octaene-16,16-dioxide]: not above 5000 nM.
The same measure, in the same setting: next, `CN(C)CC12CCCCOc3cc(ccn3)-c3ccc4c(c3Nc3nnc([nH]3)S(=O)(=O)N(CC1)C2)CCC4` (centres unmarked) [Example 21, 20-[(dimethylamino)methyl]-25-oxa-16λ^6-thia-11,13,14,17,27,32-hexaazahexacyclo[24.3.1.1^12,15.1^17,20.0^2,10.0^5,9]dotriaconta-1(29),2,4,9,12,14,26(30),27-octaene-16,16-dioxide]: not above 1000 nM.
Molecule `CN1CCCOc2cc(ccn2)-c2ccc3c(c2Nc2nnc([nH]2)S(=O)(=O)N2CC[C@H]1C2)CCC3` [Example 17, (20S)-21-methyl-25-oxa-16λ^6-thia-11,13,14,17,21,27,32-heptaazahexacyclo[24.3.1.1^12,15.1^17,20.0^2,10.0^0,9]dotriaconta-1(29),2,4,9,12,14,26(30),27-octaene-16,16-dioxide] had an IC50 not above 500 nM.
Still for that read-out and setting: next, `CN(C)CC12CCCCOc3cc(ccn3)-c3ccc4c(c3Nc3nnc([nH]3)S(=O)(=O)N(C1)C2)CCC4` [Example 16, 19-[(dimethylamino)methyl]-24-oxa-16λ^6-thia-11,13,14,17,26,31-hexaazahexacyclo[23.3.1.1^12,15.1^17,19.0^2,10.0^5,9]hentriaconta-1(28),2,4,9,12,14,25(29),26-octaene-16,16-dioxide]: not above 1000 nM; `CC1(C)COc2cc(ccn2)-c2ccc3c(c2Nc2nnc([nH]2)S(=O)(=O)c2ccn1n2)CCC3` [Example 6, 21,21-dimethyl-23-oxa-16λ^6-thia-11,13,14,20,25,29,30-heptazahexacyclo-[22.3.1.1^12,15.1^17,20.0^2,10.0^5,9]triaconta-1(27),2,4,9,12(30),14,17(29),18,24(28),25-decaene 16,16-dioxide]: not above 5000 nM; `O=S1(=O)c2nnc([nH]2)Nc2c(ccc3c2CCC3)-c2ccnc(c2)OCC2CN(C2)C2CCN1CC2` [Example 18, 6-oxa-26λ^6-thia-2,8,21,23,24,27,32-heptaazaheptacyclo-[25.2.2.1^2,4.1^7,11.1^22,25.0^12,20.1^15,19]tetratriaconta-7(33),8,10,12,14,19,22,24-octaene-26,26-dioxide]: not above 5000 nM.
Same read-out and setting: the same measure for `CC(C)c1cc(F)cc2c1Nc1nnc([nH]1)S(=O)(=O)N1CC3(CCN(CCCOc4cc-2ccn4)C3)C1` [Example 24, 4-fluoro-6-(propan-2-yl)-23-oxa-13λ^6-thia-8,10,11,14,19,25,31-heptaazahexacyclo[22.3.1.1^9,12.1^14,16.1^16,19.0^2,7]hentriaconta-1(27),2(7),3,5,9,11,24(28),25-octaene-13,13-dioxide]: not above 100 nM.

The target of the next experiment is T1, NLRP3. Description: Human whole blood IL-1β release assay. The conditions noted are these: 1 μg/ml LPS, compound 3 hrs, nigericin 10 μM 1 hr, IL-1β in supernatant (AlphaLisa), read-out: HWB IC50. Set-up: Human whole blood in Li-heparin tubes was obtained from healthy donors; from tissue; host or cells: human whole blood from healthy volunteer donors, LPS-primed, nigericin-stimulated. The class given is cell-based. Here is the method:
For systemic delivery, the ability to inhibit NLRP3 when the compounds are present within the bloodstream is of great importance. For this reason, the NLRP3 inhibitory activity of a number of compounds in human whole blood was investigated in accordance with the following protocol.
Human whole blood in Li-heparin tubes was obtained from healthy donors from a volunteer donor panel. • 1. Plate out 80 μl of whole blood containing 1 μg/ml of LPS in 96-well, clear bottom cell culture plate (Corning #3585) • 2. Add 10 μl compound (8 points half-log dilution with 10 μM top dose) or vehicle (DMSO 0.1% FAC) to the appropriate wells • 3. Incubate for 3 hrs at 37° C., 5% CO2 • 4. Add 10 μl nigericin (Sigma #N7143) (10 μM FAC) to all wells • 5. Incubate for 1 hr at 37° C., 5% CO2 • 6. At the end of the incubation period, spin plates at 300×g for 5 mins to pellet cells and remove 20 μl of supernatant and add to 96-well v-bottom plates for IL-1β analysis (note: these plates containing the supernatants can be stored at −80° C. to be analysed at a later date) • 7. IL-1β was measured according to the manufacturer protocol (Perkin Elmer-AlphaLisa IL-1 Kit AL220F-5000) • 8. IC50 data is fitted to a non-linear regression equation (log inhibitor vs response-variable slope 4-parameters)
(Alpha assays give light when donor and acceptor beads are brought close together.)
On to `CN1CCOc2cc(ccn2)-c2ccc3c(c2Nc2nnc([nH]2)S(=O)(=O)N2CCC1CC2)CCC3` [Example 9, 25-methyl-22-oxa-2λ^6-thia-1,4,5,7,20,25,32-heptaazahexacyclo-[24.2.2.1^3,6.1^17,21.0^8,16.0^9,13]dotriaconta-3,5,8,13,15,17,19,21(31)-octaene-2,2-dioxide], for which the 50% inhibitory concentration (IC50) was not above 500 nM.
On the same count and under the same terms, next, `Cc1cc2c(c3c1-c1ccnc(c1)OCCCN1CCC4(C1)CN(C4)S(=O)(=O)c1nnc([nH]1)N3)CCC2` [Example 4, 3-methyl-26-oxa-16λ^6-thia-11,13,14,17,22,28,34-heptazaheptacyclo-[25.3.1.1^12,15.1^17,19.1^19,22.0^2,10.0^5,9]tetratriaconta-1(30),2,4,9,12,14,27(31),28-octaene 16,16-dioxide]: not above 500 nM; `CC1(C)COc2cc(ccn2)-c2ccc3c(c2Nc2nnc([nH]2)S(=O)(=O)N2CC4(CCN1C4)C2)CCC3` [Example 10, 23,23-dimethyl-25-oxa-16λ^6-thia-11,13,14,17,22,27,33-heptaazaheptacyclo[24.3.1.1^12,15.1^17,19.1^19,22.0^2,10.0^5,9]tritriaconta-1(29),2,4,9,12,14,26(30),27-octaene-16,16-dioxide]: not above 500 nM.

The record behind these values is patent US20230121952A1 (INFLAZOME LIMITED, priority 2020, published 2023).
